Results as given in patent publication US9642831B2, “Substituted chromanes and method of use” (AbbVie S.á.r.l., priority 2014, dated 2017).

Molecular target: F508delCFTR (Homo sapiens, UniProt P13569, DEL508-508)
Test: Cell Surface Expression-Horse Radish Peroxidase (CSE-HRP) assay
Type: cell-based
Parameters: expressed in transfected cells; host or cells: CFBE41o- human lung derived epithelial cell line, doxycycline-inducible
Conditions: CFBE4lo-F508delCFTR-HRP cells; for EC50: 18-24 hours at 33° C., 8-point curve, highest concentration 20 μM, luminescence readout; for Emax: maximum % activity at any tested concentration, normalized to on-plate positive control (3 μM Example 1)
Excerpt: Cell Surface Expression-Horse Radish Peroxidase (CSE-HRP) Assay:
A cellular assay for measuring the F508delCFTR cell surface expression after correction with test compounds was developed in human lung derived epithelial cell line (CFBE4lo-) (Veit G et al, (2012) Mol Biol Cell. 23(21): 4188-4202). This was achieved by expressing the F508delCFTR mutation along with a horseradish peroxidase (HRP) in the fourth exofacial loop and then measuring the HRP activity using luminescence readout from these cells, CFBE4lo-F508delCFTR-HRP, that were incubated overnight with the test corrector compounds. Briefly, for this primary assay, the CFBE4lo-F508delCFTR-HRP cells were plated in 384-well plates (Greiner Bio-one; Cat 781080) at 4,000 cells/well along with 0.5 μg/mL doxycycline to induce the F508delCFTR-HRP expression and further incubated at 37° C., 5% CO2 for 72 hours. The test compounds were then added at the required concentrations and further incubated for 18-24 hours at 33° C. The highest concentration tested was 20 μM with an 8-point concentration response curve using a 3-fold dilution. Three replicate plates were run to determine one EC50. All plates contained negative controls (dimethyl sulfoxide, DMSO) and positive controls (3 μM of 3-[(2R,4R)-4-({[1-(2,2-difluoro-1,3-benzodioxol-5-yl)cyclopropyl]carbonyl}amino)-7-methoxy-3,4-dihydro-2H-chromen-2-yl]benzoic acid) as well as on-plate concentration response of the positive control. Post incubation, the plates were washed 5× times with Dulbecco's phosphate buffered saline (DPBS), followed by the addition of the HRP substrate, luminol (50 μL), and measuring the HRP activity using luminescence readout on EnVision® Multilabel Plate Reader (Perkin Elmer; product number 2104-0010). The raw counts from the experiment are analyzed using Accelrys® Assay Explorer v3.3.
Z′ greater than 0.5 was used as passing quality control criteria for the plates.
The Z′ is defined as: 1−[3*SDPositive Control+3*SDNegative Control/Absolute(MeanPositive Control−MeanNegative Control)] wherein “SD” is standard deviation.
The % activity measured at each of the 8 test concentrations of the test compound was normalized to the on-plate positive control using the following formula: % activity=[(test compound response−DMSO response)/(positive control response−DMSO response)]*100
The maximum % activity achieved for the test compound at any tested concentration is presented in Table 1 along with the EC50 calculated using the following general sigmoidal curve with variable Hill slope equation (described as Model 42 in the Accelrys® Assay Explorer v3.3 software): y=(a−d)/(1+(x/c)^b)+d
General sigmoidal curve with concentration, response, top, bottom, EC50 and Hill slope.
This model describes a sigmoidal curve with an adjustable baseline, a. The equation can be used to fit curves where response is either increasing or decreasing with respect to the independent variable, “x”.
“x” is a concentration of drug under test.
“a” is the maximum response, and “d” is the minimum response
“c” is the inflection point (EC50) for the curve. That is, “y” is halfway between the lower and upper asymptotes when x=c.
“b” is the slope-factor or Hill coefficient. The sign of b is positive when the response increases with increasing dose and is negative when the response decreases with increasing dose (inhibition).

Sequence of F508delCFTR (P13569 with tags, fused parts or gaps DEL508-508): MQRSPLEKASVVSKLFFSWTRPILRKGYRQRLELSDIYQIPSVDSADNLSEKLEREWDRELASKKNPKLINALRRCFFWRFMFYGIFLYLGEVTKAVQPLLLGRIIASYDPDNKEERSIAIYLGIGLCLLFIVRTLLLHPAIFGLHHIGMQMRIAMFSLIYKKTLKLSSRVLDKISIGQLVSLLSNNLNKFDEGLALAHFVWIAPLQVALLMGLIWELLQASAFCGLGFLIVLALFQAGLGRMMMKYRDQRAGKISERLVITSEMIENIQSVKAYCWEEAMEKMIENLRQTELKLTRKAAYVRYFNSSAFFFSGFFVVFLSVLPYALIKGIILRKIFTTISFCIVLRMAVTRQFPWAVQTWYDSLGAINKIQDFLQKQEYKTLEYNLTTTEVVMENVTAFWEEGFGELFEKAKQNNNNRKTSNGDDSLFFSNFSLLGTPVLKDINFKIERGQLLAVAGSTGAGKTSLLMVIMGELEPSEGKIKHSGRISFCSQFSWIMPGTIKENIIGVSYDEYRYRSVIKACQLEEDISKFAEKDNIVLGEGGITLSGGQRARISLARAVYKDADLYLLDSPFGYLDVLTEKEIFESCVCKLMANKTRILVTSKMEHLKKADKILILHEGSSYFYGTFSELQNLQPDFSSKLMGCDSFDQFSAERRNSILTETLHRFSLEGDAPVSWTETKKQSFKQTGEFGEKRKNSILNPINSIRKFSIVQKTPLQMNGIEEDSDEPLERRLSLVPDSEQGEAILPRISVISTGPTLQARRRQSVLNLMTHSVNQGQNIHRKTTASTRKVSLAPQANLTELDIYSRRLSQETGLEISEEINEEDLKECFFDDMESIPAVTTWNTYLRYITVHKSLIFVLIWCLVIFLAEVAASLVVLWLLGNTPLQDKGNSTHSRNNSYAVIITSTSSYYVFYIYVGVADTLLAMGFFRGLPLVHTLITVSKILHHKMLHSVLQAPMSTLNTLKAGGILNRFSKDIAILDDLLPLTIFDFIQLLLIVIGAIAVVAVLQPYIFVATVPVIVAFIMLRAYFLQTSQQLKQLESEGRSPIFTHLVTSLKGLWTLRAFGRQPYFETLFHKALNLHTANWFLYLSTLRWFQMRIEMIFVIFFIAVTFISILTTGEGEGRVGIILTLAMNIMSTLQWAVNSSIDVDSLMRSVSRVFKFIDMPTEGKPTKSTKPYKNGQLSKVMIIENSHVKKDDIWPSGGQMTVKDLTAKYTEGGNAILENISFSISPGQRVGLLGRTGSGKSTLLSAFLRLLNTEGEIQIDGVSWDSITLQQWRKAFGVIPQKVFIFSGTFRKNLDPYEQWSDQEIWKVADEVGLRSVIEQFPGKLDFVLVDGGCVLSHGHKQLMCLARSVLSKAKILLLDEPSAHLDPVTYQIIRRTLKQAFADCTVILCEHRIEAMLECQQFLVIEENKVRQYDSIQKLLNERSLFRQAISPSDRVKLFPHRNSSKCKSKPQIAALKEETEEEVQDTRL

Structure (SMILES) | EC50 [nM] | Emax [%]
COc1ccc2c(c1)O[C@@H](C(=O)N1CCCOCC1)C[C@H]2NC(=O)C1(c2ccc3c(c2)OC(F)(F)O3)CC1 (racemic) [Example 175, rac-1-(2,2-difluoro-1,3-benzodioxol-5-yl)-N-[(2R,4R)-7-methoxy-2-(1,4-oxazepan-4-ylcarbonyl)-3,4-dihydro-2H-chromen-4-yl]cyclopropanecarboxamide] | 3200 | 54
COc1ccc2c(c1)O[C@@H](C(=O)N(C)C1COC1)C[C@H]2NC(=O)C1(c2ccc3c(c2)OC(F)(F)O3)CC1 (racemic) [Example 176, rac-(2R,4R)-4-({[1-(2,2-difluoro-1,3-benzodioxol-5-yl)cyclopropyl]carbonyl}amino)-7-methoxy-N-methyl-N-(oxetan-3-yl)-3,4-dihydro-2H-chromene-2-carboxamide] | 9630 | 30
COc1ccc2c(c1)O[C@@H](C(=O)N1CCOCC1)C[C@H]2NC(=O)C1(c2ccc3c(c2)OC(F)(F)O3)CC1 (racemic) [Example 177, rac-1-(2,2-difluoro-1,3-benzodioxol-5-yl)-N-[(2R,4R)-7-methoxy-2-(morpholin-4-ylcarbonyl)-3,4-dihydro-2H-chromen-4-yl]cyclopropanecarboxamide] | 2910 | 56
COc1ccc2c(c1)O[C@@H](C(=O)NC(CO)CO)C[C@H]2NC(=O)C1(c2ccc3c(c2)OC(F)(F)O3)CC1 (racemic) [Example 180, rac-(2R,4R)-4-({[1-(2,2-difluoro-1,3-benzodioxol-5-yl)cyclopropyl]carbonyl}amino)-N-(1,3-dihydroxypropan-2-yl)-7-methoxy-3,4-dihydro-2H-chromene-2-carboxamide] | 5930 | 59
CCCN(CCO)C(=O)[C@H]1C[C@H](NC(=O)C2(c3ccc4c(c3)OC(F)(F)O4)CC2)c2ccc(OC)cc2O1 (racemic) [Example 183, rac-(2R,4S)-4-({[1-(2,2-difluoro-1,3-benzodioxol-5-yl)cyclopropyl]carbonyl}amino)-N-(2-hydroxyethyl)-7-methoxy-N-propyl-3,4-dihydro-2H-chromene-2-carboxamide] | 860 | 67
COc1ccc2c(c1)O[C@@H](C(=O)N(CCO)Cc1ccccc1)C[C@@H]2NC(=O)C1(c2ccc3c(c2)OC(F)(F)O3)CC1 (racemic) [Example 184, rac-(2R,4S)—N-benzyl-4-({[1-(2,2-difluoro-1,3-benzodioxol-5-yl)cyclopropyl]carbonyl}amino)-N-(2-hydroxyethyl)-7-methoxy-3,4-dihydro-2H-chromene-2-carboxamide] | 580 | 73
COc1ccc2c(c1)O[C@@H](C(=O)N1CCC(O)CC1)C[C@@H]2NC(=O)C1(c2ccc3c(c2)OC(F)(F)O3)CC1 (racemic) [Example 186, rac-1-(2,2-difluoro-1,3-benzodioxol-5-yl)-N-{(2R,4S)-2-[(4-hydroxypiperidin-1-yl)carbonyl]-7-methoxy-3,4-dihydro-2H-chromen-4-yl}cyclopropanecarboxamide] | 1360 | 66
COc1ccc2c(c1)O[C@@H](C(=O)N1CCN(CCO)CC1)C[C@@H]2NC(=O)C1(c2ccc3c(c2)OC(F)(F)O3)CC1 (racemic) [Example 187, rac-1-(2,2-difluoro-1,3-benzodioxol-5-yl)-N-[(2R,4S)-2-{[4-(2-hydroxyethyl)piperazin-1-yl]carbonyl}-7-methoxy-3,4-dihydro-2H-chromen-4-yl]cyclopropanecarboxamide] | 1950 | 76
COc1ccc2c(c1)O[C@@H](C(=O)NCC(C)(C)O)C[C@@H]2NC(=O)C1(c2ccc3c(c2)OC(F)(F)O3)CC1 (racemic) [Example 188, rac-(2R,4S)-4-({[1-(2,2-difluoro-1,3-benzodioxol-5-yl)cyclopropyl]carbonyl}amino)-N-(2-hydroxy-2-methylpropyl)-7-methoxy-3,4-dihydro-2H-chromene-2-carboxamide] | 4650 | 43
COc1ccc2c(c1)O[C@@H](C(=O)NC(C)(C)CO)C[C@@H]2NC(=O)C1(c2ccc3c(c2)OC(F)(F)O3)CC1 (racemic) [Example 189, rac-(2R,4S)-4-({[1-(2,2-difluoro-1,3-benzodioxol-5-yl)cyclopropyl]carbonyl}amino)-N-(1-hydroxy-2-methylpropan-2-yl)-7-methoxy-3,4-dihydro-2H-chromene-2-carboxamide] | 3830 | 58
COc1ccc2c(c1)O[C@@H](C(=O)NC1CCS(=O)(=O)CC1)C[C@@H]2NC(=O)C1(c2ccc3c(c2)OC(F)(F)O3)CC1 (racemic) [Example 191, rac-(2R,4S)-4-({[1-(2,2-difluoro-1,3-benzodioxol-5-yl)cyclopropyl]carbonyl}amino)-N-(1,1-dioxidotetrahydro-2H-thiopyran-4-yl)-7-methoxy-3,4-dihydro-2H-chromene-2-carboxamide] | 4100 | 51

More lines, now with the values ahead:

EC50 [nM] | Emax [%] | Structure (SMILES)
740 | 64 | COc1ccc2c(c1)O[C@@H](C(=O)NC(CO)c1ccccc1OC)C[C@H]2NC(=O)C1(c2ccc3c(c2)OC(F)(F)O3)CC1 (mixture of isomers) [Example 178, rac-(2R,4R)-4-({[1-(2,2-difluoro-1,3-benzodioxol-5-yl)cyclopropyl]carbonyl}amino)-N-[2-hydroxy-1-(2-methoxyphenyl)ethyl]-7-methoxy-3,4-dihydro-2H-chromene-2-carboxamide]
800 | 69 | COc1ccc2c(c1)O[C@@H](C(=O)NCCc1cccc(O)c1)C[C@H]2NC(=O)C1(c2ccc3c(c2)OC(F)(F)O3)CC1 (racemic) [Example 179, rac-(2R,4R)-4-({[1-(2,2-difluoro-1,3-benzodioxol-5-yl)cyclopropyl]carbonyl}amino)-N-[2-(3-hydroxyphenyl)ethyl]-7-methoxy-3,4-dihydro-2H-chromene-2-carboxamide]
1590 | 57 | COc1ccc2c(c1)O[C@@H](C(=O)NC1c3ccccc3CC1O)C[C@H]2NC(=O)C1(c2ccc3c(c2)OC(F)(F)O3)CC1 (mixture of isomers) [Example 181, rac-(2R,4R)-4-({[1-(2,2-difluoro-1,3-benzodioxol-5-yl)cyclopropyl]carbonyl}amino)-N-(2-hydroxy-2,3-dihydro-1H-inden-1-yl)-7-methoxy-3,4-dihydro-2H-chromene-2-carboxamide]
800 | 46 | COc1ccc2c(c1)O[C@@H](C(=O)Nc1ccccc1O)C[C@@H]2NC(=O)C1(c2ccc3c(c2)OC(F)(F)O3)CC1 (racemic) [Example 182, rac-(2R,4S)-4-({[1-(2,2-difluoro-1,3-benzodioxol-5-yl)cyclopropyl]carbonyl}amino)-N-(2-hydroxyphenyl)-7-methoxy-3,4-dihydro-2H-chromene-2-carboxamide]
640 | 77 | COc1ccc2c(c1)O[C@@H](C(=O)N(C)CC(O)c1ccccc1)C[C@@H]2NC(=O)C1(c2ccc3c(c2)OC(F)(F)O3)CC1 (mixture of isomers) [Example 185, rac-(2R,4S)-4-({[1-(2,2-difluoro-1,3-benzodioxol-5-yl)cyclopropyl]carbonyl}amino)-N-(2-hydroxy-2-phenylethyl)-7-methoxy-N-methyl-3,4-dihydro-2H-chromene-2-carboxamide]
2790 | 39 | COc1ccc2c(c1)O[C@@H](C(=O)NC(CO)c1ccccc1)C[C@@H]2NC(=O)C1(c2ccc3c(c2)OC(F)(F)O3)CC1 (mixture of isomers) [Example 190, rac-(2R,4S)-4-({[1-(2,2-difluoro-1,3-benzodioxol-5-yl)cyclopropyl]carbonyl}amino)-N-(2-hydroxy-1-phenylethyl)-7-methoxy-3,4-dihydro-2H-chromene-2-carboxamide]
